Laboratory results reported in PubChem BioAssay AID298 (DTP/NCI, 2004).
Inconclusive results are not listed.

Tested on: MX-1 breast xenograft, intrarenal, nude mice, tumor weight
Assay: NCI In Vivo Anticancer Drug Screen. Data for tumor model Human Mammary Carcinoma MX-1 Xenograft (intrarenal inoculation) in NU/NU BALB/C (nude) mice
Settings: endpoint: mean tumor weight change, higher = larger tumour
How it was run: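 Efficacy in vivo: tumor measurement or survival of treated animals divided by that of vehicle-dosed controls.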

[1] = dose: 150.0 mg/kg/injection, schedule: Q04DX003 (ip), vehicle: saline with Tween-80
[2] = dose: 300.0 mg/kg/injection, schedule: Q04DX003 (ip), vehicle: saline with Tween-80

CCCCNP1(NCCCC)=NP(NCCCC)(NCCCC)=NP(NCCCC)(NCCCC)=NP(NCCCC)(NCCCC)=N1 was tested, and the T/C [1] was 89 % of control and the T/C [2] was 73 % of control.
In the case of O=NNc1ccccn1, the T/C (dose: 4.0 mg/kg/injection, schedule: Q01DX010 (sc), vehicle: saline) was 124 % of control, the T/C (dose: 16.0 mg/kg/injection, schedule: Q01DX010 (sc), vehicle: saline) was 80 % of control and the T/C (dose: 32.0 mg/kg/injection, schedule: Q01DX010 (sc), vehicle: saline) was 14 % of control.
For C[C@@]1(CO)[C@H](O)CC[C@@]2(C)[C@H]1CC[C@H]1C[C@@H]3C[C@@]12CC[C@@]3(O)COC(=O)CN, the T/C (dose: 50.0 mg/kg/injection, schedule: Q04DX003 (ip), vehicle: saline + alcohol) was 107 % of control and the T/C (dose: 100.0 mg/kg/injection, schedule: Q04DX003 (ip), vehicle: saline + alcohol) was 95 % of control.
For CO[C@@H]1C2=CC=CC=C[C@H]2n2c(=O)n(C)c(=O)n21, the T/C (dose: 75.0 mg/kg/injection, schedule: Q04DX003 (ip), vehicle: other) was 36 % of control, the T/C (dose: 150.0 mg/kg/injection, schedule: Q04DX003 (ip), vehicle: other) was 34 % of control and the T/C (dose: 300.0 mg/kg/injection, schedule: Q04DX003 (ip), vehicle: other) was 92 % of control.
C[n+]1ccc2cc(N)c3c4ccccc4sc3c2c1 was tested, and the T/C (dose: 12.5 mg/kg/injection, schedule: Q04DX003 (sc), vehicle: saline with Tween-80) was 96 % of control and the T/C (dose: 25.0 mg/kg/injection, schedule: Q04DX003 (sc), vehicle: saline with Tween-80) was 100 % of control.
NNC(=S)N/N=C/c1ccccn1 was tested, and the T/C (dose: 15.0 mg/kg/injection, schedule: Q04DX003 (sc), vehicle: saline with Tween-80) was 116 % of control, the T/C (dose: 30.0 mg/kg/injection, schedule: Q04DX003 (sc), vehicle: saline with Tween-80) was 96 % of control and the T/C (dose: 60.0 mg/kg/injection, schedule: Q04DX003 (sc), vehicle: saline with Tween-80) was 123 % of control.
In the case of O=c1n(CC2CO2)c(=O)n(CC2CO2)n1CC1CO1 (stereo unspecified), the T/C (dose: 9.38 mg/kg/injection, schedule: Q04DX003 (sc), vehicle: suspension in saline) was 46 % of control, the T/C (dose: 18.75 mg/kg/injection, schedule: Q04DX003 (sc), vehicle: suspension in saline) was 20 % of control and the T/C (dose: 37.5 mg/kg/injection, schedule: Q04DX003 (sc), vehicle: suspension in saline) was 12 % of control.
With CCCSc1nc(COC(=O)NC)c(COC(=O)NC)n1C the T/C (dose: 30.0 mg/kg/injection, schedule: Q04DX003 (ip), vehicle: saline) was 74 % of control, the T/C (dose: 60.0 mg/kg/injection, schedule: Q04DX003 (ip), vehicle: saline) was 76 % of control and the T/C (dose: 120.0 mg/kg/injection, schedule: Q04DX003 (ip), vehicle: saline) was 70 % of control. The T/C (dose: 240.0 mg/kg/injection, schedule: Q04DX003 (ip), vehicle: saline) was 26 % of control.
With CCN(CC)CCOCCO the T/C (dose: 600.0 mg/kg/injection, schedule: Q04DX003 (sc), vehicle: saline) was 121 % of control.
In the case of Oc1ccc(CCl)c2cccnc12, the T/C (dose: 75.0 mg/kg/injection, schedule: Q04DX003 (sc), vehicle: saline) was 120 % of control, the T/C (dose: 150.0 mg/kg/injection, schedule: Q04DX003 (sc), vehicle: saline) was 99 % of control and the T/C (dose: 300.0 mg/kg/injection, schedule: Q04DX003 (sc), vehicle: saline) was 87 % of control.
With CO[C@H]1C[C@@H]2CC[C@@H](C)[C@@](O)(O2)C(=O)C(=O)N2CCCC[C@H]2C(=O)O[C@H]([C@H](C)C[C@@H]2CC[C@@H](O)[C@H](OC)C2)CC(=O)[C@H](C)C=C(C)[C@@H](O)[C@@H](OC)C(=O)[C@H](C)C[C@H](C)/C=C/C=C/C=C1C the T/C (dose: 100.0 mg/kg/injection, schedule: Q01DX010 (sc), vehicle: saline with Tween-80) was 30 % of control, the T/C (dose: 200.0 mg/kg/injection, schedule: Q01DX010 (sc), vehicle: saline with Tween-80) was 22 % of control and the T/C (dose: 400.0 mg/kg/injection, schedule: Q01DX010 (sc), vehicle: saline with Tween-80) was 54 % of control. The T/C (dose: 800.0 mg/kg/injection, schedule: Q01DX010 (sc), vehicle: saline with Tween-80) was 54 % of control.
For O=C1NC(=O)NC(C(=O)O)N1, the T/C (dose: 200.0 mg/kg/injection, schedule: Q04DX003 (sc), vehicle: Klucel (hydroxypropylcellulose) (HPC)) was 96 % of control and the T/C (dose: 400.0 mg/kg/injection, schedule: Q04DX003 (sc), vehicle: Klucel (hydroxypropylcellulose) (HPC)) was 108 % of control.
With C[n+]1c(-c2ccc(/C=N/NC(=O)c3ccc(C(=O)N/N=C/c4ccc(-c5cn6ccccc6[n+]5C)cc4)cc3)cc2)cn2ccccc21 the T/C (dose: 75.0 mg/kg/injection, schedule: Q04DX003 (ip), vehicle: saline with Tween-80) was 92 % of control, the T/C [1] was 56 % of control and the T/C [2] was 65 % of control. For the same molecule, the T/C (dose: 600.0 mg/kg/injection, schedule: Q04DX003 (ip), vehicle: saline with Tween-80) was 69 % of control.
